# Test results: a melting point compilation (Tetko et al.; mined from patent text by program, amines drawn as free bases though some values may be those of a salt)
row,Compound,melting point
1,Cc1nc(C)c(Cl)c(NCc2ccc(O)cc2)n1,202 °C
2,COc1cccc([C@@H]2CC[C@H](c3cccc(O)c3)N2C(=O)CNC(=O)Nc2cccc(C(=O)O)c2)c1 (relative stereo),172 °C
3,Cc1ncc(C#N)c(Nc2ccc3[nH]ccc3c2C)c1-c1ccc(OCCCl)cc1,200 to 201 °C
4,Cc1nnc(-c2ccccc2F)n2nc(OCc3ncn(C)n3)c(-c3ccsc3)c12,214 to 217 °C
5,N#Cc1ccc(S(=O)(=O)N2CCN(c3ccncc3)CC2)cc1,212 to 213 °C
6,COc1cc2c(C)c(C#N)cnc2cc1F,177 to 179 °C
7,NC(=O)c1c(Cl)ccc(Br)c1F,157 to 158 °C
8,OC(c1cccc(Oc2ccccc2)n1)C(F)(F)F (centres undefined),51.5 to 53.5 °C
9,O=C(O)COc1ccc2c(-c3ccco3)noc2c1Cl,230 to 233 °C
10,CO[C@@H](C(=O)N[C@H]1CC[C@@H](OC(=O)CCc2ccccc2)CNC1=O)[C@H](O)[C@@H](O)[C@H](O)/C=C/C(C)(C)C,75 to 77 °C
11,O=C1CCC(c2ccc(O)cc2)CC1,165 to 166 °C
12,Fc1ccc(Nc2ncnc3cnc(OC4CCOCC4)nc23)cc1Cl,220 to 222 °C
13,CC1CCc2cc(N3C[C@H](CO)OC3=O)ccc2N1C(=O)OCc1ccccc1 (some centres undefined),99 to 102 °C
14,CCCCNc1c(N)cc(C(=O)O)cc1S(N)(=O)=O,211 to 212 °C
15,COC(COc1ccc(C(=O)C(C)(C)O)cc1)OC,52 to 53 °C
16,COC(=O)CCCCCCCCCCCCC1=C(C)C(=O)C(OC)=C(OC)C1=O,54 °C
17,CCN(CC)c1ccc(C(=O)C#Cc2ccnc3ccccc23)cc1,163 to 165 °C
18,COCCC1CCCCN1C(=O)C=Cc1c(-c2ccccc2)nn2ccccc12 (centres undefined),139 to 140 °C
19,CC#CCOc1cc(Oc2ccc([N+](=O)[O-])cc2F)ncn1,132 °C
20,CN1CCN(c2cccc3ccc(Nc4ncccc4[N+](=O)[O-])cc23)CC1,128 to 129 °C

row,Compound,melting point
1,CC(C)(C)NC(=O)[C@@H]1C[C@@H]2CCCC[C@@H]2CN1C[C@@H](O)[C@H](Cc1ccccc1)NC(=O)[C@@H](Nc1nc(CO)cs1)C(C)(C)S(C)(=O)=O,126 °C
2,COc1cc2nc(N3CCN(c4nc5ccccc5o4)CC3)nc(N)c2cc1OC,> 250 °C
3,COC(=O)c1ccc(C(O)C#Cc2ccccc2)cc1 (centres undefined),48 to 50 °C
4,COc1cc(C(=O)NS(=O)(=O)c2ccccc2)ccc1Cn1nc(OC)c2ccc(NC(=O)OC3CCCC3)cc21,246 to 248 °C
5,Cc1cccc(C2(O)CCC(=O)N2C)c1 (centres undefined),128 to 130 °C
6,CC(=O)c1ccc(OC(C)CCCCC(=O)O)cc1O (centres undefined),116 to 118 °C
7,O=[N+]([O-])c1cn(-c2cccnc2)nc1Br,139 to 141 °C
8,O=C(NC1N=C(c2ccccc2F)c2ccccc2-n2cnnc21)c1cc2ccccc2[nH]1 (centres undefined),291 °C
9,N#CC(CCOc1ccc(Br)cc1)c1ccc(Cl)cc1Cl (centres undefined),73.9 °C
10,CC(C)CC(=O)Nc1cncc(-c2ccnc3c(C(=O)c4cccs4)cnn23)c1,217 to 219 °C
11,NC(=O)NCCCCCCNC(N)=O,197 to 200 °C
12,CC1CN(c2ccc([N+](=O)[O-])nc2)C1,141 to 143 °C
13,Cn1ncc(C(=O)N2CCC2)c1C(=O)Nc1ccn2nc(-c3cccnc3)nc2c1,253 to 254 °C
14,c1ccc(Cn2ccc3ccccc32)cc1,43 to 45 °C
15,CCOC(=O)c1cn(C(C)(C)CO[Si](C)(C)C(C)(C)C)c2cc(Br)ccc2c1=O,133 °C
16,NC(=O)c1ccc2c([N+](=O)[O-])cc3c(c2c1)C(CCl)CN3 (centres undefined),> 300 °C
17,CCCCCCCCCCCCCCCc1cccc(OCC)c1C1NC(=O)NC(C)=C1C(=O)OC (centres undefined),127 to 129 °C
18,COc1ccc(-c2cc(C)cn2-c2ccc(S(=O)(=O)NC(C)=O)cc2)cc1,215 to 217 °C
19,CC(=O)Nc1ccc(C(=O)NC(=O)N2CCC(Cc3ccc(F)cc3)CC2)cc1,156 to 171 °C
